From US20250154686A1, “COMPOUND LIBRARY” (CHUGAI SEIYAKU KABUSHIKI KAISHA, priority 2021, published 2025)

Target: T1, Bcl-2 protein (Recombinant Human Bcl-2 Protein) (Homo sapiens, UniProt P10415)
T1 construct: purchased Novus Biologicals NBP2-34889
Experiment: AS-MS evaluation of binding of the Example 4 mixture library (1200 compounds/well) to Bcl-2, ASMS ratio (%)
Conditions: AS-MS, Example 4 mixture library; for ASMS ratio (%) n = 1: Bcl-2, replicate n = 1; for ASMS ratio (%) n = 2: Bcl-2, replicate n = 2
Method in brief: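 Recombinant human Bcl-2 at 20 μM final was exposed to a 1200-member compound pool (20 nM per compound) in pH 7.4 Tris-HCl buffer containing NaCl, Tween-20 and DTT. After 1 h at 23 °C, protein–ligand complexes passed SEC spin columns; LC/MS signals were compared with protein-free standard and blank samples to give ASMS ratio.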

T1 sequence (P10415 whole entry): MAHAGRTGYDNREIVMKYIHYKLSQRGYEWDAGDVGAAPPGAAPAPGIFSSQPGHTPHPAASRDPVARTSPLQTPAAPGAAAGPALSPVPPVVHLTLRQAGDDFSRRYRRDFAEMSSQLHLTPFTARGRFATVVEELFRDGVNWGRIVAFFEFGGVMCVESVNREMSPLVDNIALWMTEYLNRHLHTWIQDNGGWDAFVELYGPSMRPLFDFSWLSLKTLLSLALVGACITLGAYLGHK

Compound	ASMS ratio (%) n = 1	ASMS ratio (%) n = 2
CCOc1cncc(-c2cnn(-c3cc(C(=O)N4CCN(c5ccc(C(=O)NS(=O)(=O)c6ccc(NCCSc7ccccc7)c(C(F)(F)F)c6)cc5)CC4)cc(C(F)(F)F)c3)c2)c1 [Compound B2R044-01, 4-[4-[3-[4-(5-Ethoxypyridin-3-yl)pyrazol-1-yl]-5-(trifluoromethyl)benzoyl]piperazin-1-yl]-N-[4-(2-phenylsulfanylethylamino)-3-(trifluoromethyl)phenyl]sulfonylbenzamide]	−3.7%	−4.1%
CCOc1cccc(-c2ccccc2CN2CCN(c3ccc(C(=O)NS(=O)(=O)c4ccc(NCCSc5ccccc5)c(C(F)(F)F)c4)cc3)CC2)c1 [Compound B2R045-01, 4-[4-[[2-(3-Ethoxyphenyl)phenyl]methyl]piperazin-1-yl]-N-[4-(2-phenylsulfanylethylamino)-3-(trifluoromethyl)phenyl]sulfonylbenzamide]	4.8%	−3.4%
CCOc1cncc(-c2ccccc2CN2CCN(c3ccc(C(=O)NS(=O)(=O)c4ccc(NCCSc5ccccc5)c(C(F)(F)F)c4)cc3)CC2)c1 [Compound B2R046-01, 4-[4-[[2-(5-ethoxypyridin-3-yl)phenyl]methyl]piperazin-1-yl]-N-[4-(2-phenylsulfanylethylamino)-3-(trifluoromethyl)phenyl]sulfonylbenzamide]	−0.2%	0.0%
CCOc1cccc(-c2ccc(CN3CCN(c4ccc(C(=O)NS(=O)(=O)c5ccc(NCCSc6ccccc6)c(C(F)(F)F)c5)cc4)CC3)cc2C)c1 [Compound B2R047-01, 4-[4-[[4-(3-Ethoxyphenyl)-3-methylphenyl]methyl]piperazin-1-yl]-N-[4-(2-phenylsulfanylethylamino)-3-(trifluoromethyl)phenyl]sulfonylbenzamide]	6.6%	−7.8%
CCOc1cncc(-c2ccc(CN3CCN(c4ccc(C(=O)NS(=O)(=O)c5ccc(NCCSc6ccccc6)c(C(F)(F)F)c5)cc4)CC3)cc2C)c1 [Compound B2R048-01]	9.2%	7.5%
CCOc1cccc(-c2ccc(CN3CCN(c4ccc(C(=O)NS(=O)(=O)c5ccc(NCCSc6ccccc6)c(C(F)(F)F)c5)cc4)CC3)c(CC)c2)c1 [Compound B2R049-01, 4-[4-[[4-(3-Ethoxyphenyl)-2-ethylphenyl]methyl]piperazin-1-yl]-N-[4-(2-phenylsulfanylethylamino)-3-(trifluoromethyl)phenyl]sulfonylbenzamide]	7.5%	−5.5%
CCOc1cncc(-c2ccc(CN3CCN(c4ccc(C(=O)NS(=O)(=O)c5ccc(NCCSc6ccccc6)c(C(F)(F)F)c5)cc4)CC3)c(CC)c2)c1 [Compound B2R050-01]	0.0%	0.0%
CCOc1cccc(-c2ccc(CN3CCN(c4ccc(C(=O)NS(=O)(=O)c5ccc(NCCSc6ccccc6)c(C(F)(F)F)c5)cc4)CC3)cc2F)c1 [Compound B2R051-01, 4-[4-[[4-(3-Ethoxyphenyl)-3-fluorophenyl]methyl]piperazin-1-yl]-N-[4-(2-phenylsulfanylethylamino)-3-(trifluoromethyl)phenyl]sulfonylbenzamide]	12.7%	−1.8%
CCOc1cncc(-c2ccc(CN3CCN(c4ccc(C(=O)NS(=O)(=O)c5ccc(NCCSc6ccccc6)c(C(F)(F)F)c5)cc4)CC3)cc2F)c1 [Compound B2R052-01, 4-[4-[[4-(5-Ethoxypyridin-3-yl)-3-fluorophenyl]methyl]piperazin-1-yl]-N-[4-(2-phenylsulfanylethylamino)-3-(trifluoromethyl)phenyl]sulfonylbenzamide]	0.0%	−7.4%
CCOc1cccc(-c2ccc(CN3CCN(c4ccc(C(=O)NS(=O)(=O)c5ccc(NCCSc6ccccc6)c(C(F)(F)F)c5)cc4)CC3)c(OC)c2)c1 [Compound B2R053-01, 4-[4-[[4-(3-Ethoxyphenyl)-2-methoxyphenyl]methyl]piperazin-1-yl]-N-[4-(2-phenylsulfanylethylamino)-3-(trifluoromethyl)phenyl]sulfonylbenzamide]	−15.0%	0.0%
CCOc1cncc(-c2ccc(CN3CCN(c4ccc(C(=O)NS(=O)(=O)c5ccc(NCCSc6ccccc6)c(C(F)(F)F)c5)cc4)CC3)c(OC)c2)c1 [Compound B2R054-01, 4-[4-[[4-(5-Ethoxypyridin-3-yl)-2-methoxyphenyl]methyl]piperazin-1-yl]-N-[4-(2-phenylsulfanylethylamino)-3-(trifluoromethyl)phenyl]sulfonylbenzamide]	3.3%	−0.8%
CCOc1cccc(-c2cc(CN3CCN(c4ccc(C(=O)NS(=O)(=O)c5ccc(NCCSc6ccccc6)c(C(F)(F)F)c5)cc4)CC3)cc(OCC)c2)c1 [Compound B2R055-01, 4-[4-[[3-Ethoxy-5-(3-ethoxyphenyl)phenyl]methyl]piperazin-1-yl]-N-[4-(2-phenylsulfanylethylamino)-3-(trifluoromethyl)phenyl]sulfonylbenzamide]	−3.3%	6.3%
CCOc1cncc(-c2cc(CN3CCN(c4ccc(C(=O)NS(=O)(=O)c5ccc(NCCSc6ccccc6)c(C(F)(F)F)c5)cc4)CC3)cc(OCC)c2)c1 [Compound B2R056-01, 4-[4-[[3-Ethoxy-5-(5-ethoxypyridin-3-yl)phenyl]methyl]piperazin-1-yl]-N-[4-(2-phenylsulfanylethylamino)-3-(trifluoromethyl)phenyl]sulfonylbenzamide]	–	−63.9%
CCOc1cccc(-c2cc(CN3CCN(c4ccc(C(=O)NS(=O)(=O)c5ccc(NCCSc6ccccc6)c(C(F)(F)F)c5)cc4)CC3)cc(OC(C)C)c2)c1 [Compound B2R057-01, 4-[4-[[3-(3-Ethoxyphenyl)-5-propan-2-yloxyphenyl]methyl]piperazin-1-yl]-N-[4-(2-phenylsulfanylethylamino)-3-(trifluoromethyl)phenyl]sulfonylbenzamide]	5.7%	−5.1%
CCOc1cncc(-c2cc(CN3CCN(c4ccc(C(=O)NS(=O)(=O)c5ccc(NCCSc6ccccc6)c(C(F)(F)F)c5)cc4)CC3)cc(OC(C)C)c2)c1 [Compound B2R058-01, 4-[4-[[3-(5-Ethoxypyridin-3-yl)-5-propan-2-yloxyphenyl]methyl]piperazin-1-yl]-N-[4-(2-phenylsulfanylethylamino)-3-(trifluoromethyl)phenyl]sulfonylbenzamide]	13.0%	4.8%
CCOc1cccc(-c2cc(OC)c(CN3CCN(c4ccc(C(=O)NS(=O)(=O)c5ccc(NCCSc6ccccc6)c(C(F)(F)F)c5)cc4)CC3)c(OC)c2)c1 [Compound B2R059-01, 4-[4-[[4-(3-Ethoxyphenyl)-2,6-dimethoxyphenyl]methyl]piperazin-1-yl]-N-[4-(2-phenylsulfanylethylamino)-3-(trifluoromethyl)phenyl]sulfonylbenzamide]	0.0%	0.0%
